Experimental data as given in patent US20100041089A1, “IMPROVED METHOD FOR DETECTING CHEMICAL […]” (priority 2006, published 2010).

Test system: yeast genes (expressed mRNA)
Experiment: DNA chip measurement of expressed mRNA of yeast genes after culture with a toxic chemical substance
Type: cell-based, Saccharomyces cerevisiae S288C
Experimental: Yeast (Saccharomyces cerevisiae S288C (a SUC2mal mel gap2 CUP1)) were cultured at 25° C. on YPD medium (yeast extract 1%, polypeptone 2%, glucose 2%). One of toxic chemical substances was added to the cell at logarithmic growth phase, and the cell was further cultured for two hours. Cell was cultured without any chemical substance in the same condition, and was used as a control. Concentrations of the chemical substances were defined to inhibit the growth of the yeast but not lead to death.
After the completion of cultivation, the culture was centrifuged to collect the cells. To the cells, sodium acetate buffer (50 mM sodium acetate, 10 mM EDTA, 1% SDS) was added, and the mixture was shaken at 65° C. for five minutes, followed by returning to room temperature, and obtaining the supernatant, which procedure was repeated two times. To the supernatant, ½ amount of a solution of phenol/chloroform (1:1) was added, and the mixture was centrifuged to give a supernatant, an equal amount of chloroform was added, and the mixture was centrifuged to give a supernatant. To the supernatant, an equal amount of isopropanol containing 0.3 M sodium acetate was added, and the mixture was allowed to stand at room temperature for 30 minutes, after which the mixture was centrifuged to give sediment of the whole RNAs. Seventy % ethanol was added to the sediment, and the mixture was again centrifuged to give sediment, which was then dried and dissolved in water. mRNA was isolated from the whole RNAs as followings. In view of the fact that a poly A chain is attached to the 3′ terminus of mRNA, a polynucleotide having a poly T structure which was immobilized on the surface of latex beads was used to trap the mRNA, and then the mRNA was washed and eluted with spine column (Oligotex-dT30<Super>mRNA Purification Kit, Takara). Reverse transcription of the mRNA was conducted with a reverse transcriptase (Super Script II Reverse Transcriptase; catalogue No. 18064-014, GibcoBRL) using fluorescence-labeled nucleotides to give cDNAs that were introduced with Cy3-dUTP or Cy5-dUTP during the reverse transcription.
The labeled cDNAs were dissolved in TE buffer (10 mM Tris-HCl/1 mM EDTA, pH 8.0), and the solution was dropped on the DNA chip containing the whole genes of yeast (DNA Chip Research Inc. Japan) so that the cDNAs were hybridized on the DNA chip at 65° C. for over 12 hours. The fluoresces intensity of the DNA chip was read with a scanner, and the ratio relative to the fluorescence intensity resulting from the absence of chemical substance was estimated as the following, which is shown in Tables 1 to 9.
In the Tables, “Intensity” indicated in the rightmost column is a value of the level of expressed mRNA of each gene in control cells as divided by the average level of the expressions of the whole genes. A gene of which mRNA level is lower in control, and is higher in cases of addition of chemical substance, is especially useful in the detection of toxic substances.
Here, when a ratio of an amount of mRNA expressed in the presence of the chemical substance to an amount of mRNA expressed in the absence of the chemical substance is two or more, then it is considered significant.

Q: Which results are given for N#Cc1c(Cl)c(Cl)c(Cl)c(C#N)c1Cl [(9), 2,4,5,6-Tetrachloro-1,3-benzenedicarbonitrile]?
A: The level of expressed mRNA in the presence of chemical substance/The level of expressed mRNA in the absence of chemical substance (yeast gene YMR316W, cultured two hours with substance): 2.1; The level of expressed mRNA in the presence of chemical substance/The level of expressed mRNA in the absence of chemical substance (yeast gene YMR322C, cultured two hours with substance): 21.3; The level of expressed mRNA in the presence of chemical substance/The level of expressed mRNA in the absence of chemical substance (yeast gene YNL044W, cultured two hours with substance): 0.8; The level of expressed mRNA in the presence of chemical substance/The level of expressed mRNA in the absence of chemical substance (yeast gene YNL074C, cultured two hours with substance): 1.5; The level of expressed mRNA in the presence of chemical substance/The level of expressed mRNA in the absence of chemical substance (yeast gene YNL092W, cultured two hours with substance): 2.3; The level of expressed mRNA in the presence of chemical substance/The level of expressed mRNA in the absence of chemical substance (yeast gene YNL115C, cultured two hours with substance): 2.6; The level of expressed mRNA in the presence of chemical substance/The level of expressed mRNA in the absence of chemical substance (yeast gene YNL117W, cultured two hours with the chemical substance): 12.8; The level of expressed mRNA in the presence of chemical substance/The level of expressed mRNA in the absence of chemical substance (yeast gene YNL156C, cultured two hours with substance): 2.4; The level of expressed mRNA in the presence of chemical substance/The level of expressed mRNA in the absence of chemical substance (yeast gene YNL190W, cultured two hours with substance): 1.1; The level of expressed mRNA in the presence of chemical substance/The level of expressed mRNA in the absence of chemical substance (yeast gene YNL208W, cultured two hours with substance): 2.3; The level of expressed mRNA in the presence of chemical substance/The level of expressed mRNA in the absence of chemical substance (yeast gene YNL234W, cultured two hours with substance): 2.6; The level of expressed mRNA in the presence of chemical substance/The level of expressed mRNA in the absence of chemical substance (yeast gene YNL281W, cultured two hours with substance): 2.8; The level of expressed mRNA in the presence of chemical substance/The level of expressed mRNA in the absence of chemical substance (yeast gene YNL305C, cultured two hours with substance): 2.9; The level of expressed mRNA in the presence of chemical substance/The level of expressed mRNA in the absence of chemical substance (yeast gene YNL331C): 42.6; The level of expressed mRNA in the presence of chemical substance/The level of expressed mRNA in the absence of chemical substance (yeast gene YNL331C, cultured for two hours with substance): 42.6; The level of expressed mRNA in the presence of chemical substance/The level of expressed mRNA in the absence of chemical substance (yeast gene YNR068C, cultured two hours with substance): 6.7; The level of expressed mRNA in the presence of chemical substance/The level of expressed mRNA in the absence of chemical substance (yeast gene YOL030W, cultured two hours with the chemical substance): 1.2; The level of expressed mRNA in the presence of chemical substance/The level of expressed mRNA in the absence of chemical substance (yeast gene YOL032W, cultured two hours with substance): 4.5; The level of expressed mRNA in the presence of chemical substance/The level of expressed mRNA in the absence of chemical substance (yeast gene YOL036W, cultured two hours with substance): 3.1; The level of expressed mRNA in the presence of chemical substance/The level of expressed mRNA in the absence of chemical substance (yeast gene YOL047C, cultured two hours with substance): 0.6; The level of expressed mRNA in the presence of chemical substance/The level of expressed mRNA in the absence of chemical substance (yeast gene YOL071W, cultured two hours with substance): 4.4; The level of expressed mRNA in the presence of chemical substance/The level of expressed mRNA in the absence of chemical substance (yeast gene YOL082W, cultured two hours with substance): 3.4; The level of expressed mRNA in the presence of chemical substance/The level of expressed mRNA in the absence of chemical substance (yeast gene YOL083W, cultured two hours with substance): 2.7; The level of expressed mRNA in the presence of chemical substance/The level of expressed mRNA in the absence of chemical substance (yeast gene YOL117W, cultured two hours with substance): 1.3; The level of expressed mRNA in the presence of chemical substance/The level of expressed mRNA in the absence of chemical substance (yeast gene YOL131W, cultured two hours with substance): 8.4; The level of expressed mRNA in the presence of chemical substance/The level of expressed mRNA in the absence of chemical substance (yeast gene YOL150C, cultured two hours with substance): 10.8; The level of expressed mRNA in the presence of chemical substance/The level of expressed mRNA in the absence of chemical substance (yeast gene YOL162W, cultured two hours with substance): 12.0; The level of expressed mRNA in the presence of chemical substance/The level of expressed mRNA in the absence of chemical substance (yeast gene YOL165C): 46.9; The level of expressed mRNA in the presence of chemical substance/The level of expressed mRNA in the absence of chemical substance (yeast gene YOL165C, cultured for two hours with substance): 46.9; The level of expressed mRNA in the presence of chemical substance/The level of expressed mRNA in the absence of chemical substance (yeast gene YOR019W, cultured two hours with substance): 3.5; The level of expressed mRNA in the presence of chemical substance/The level of expressed mRNA in the absence of chemical substance (yeast gene YOR197W, cultured two hours with substance): 0.8; The level of expressed mRNA in the presence of chemical substance/The level of expressed mRNA in the absence of chemical substance (yeast gene YOR215C, cultured two hours with substance): 2.1; The level of expressed mRNA in the presence of chemical substance/The level of expressed mRNA in the absence of chemical substance (yeast gene YOR228C, cultured two hours with substance): 1.4; The level of expressed mRNA in the presence of chemical substance/The level of expressed mRNA in the absence of chemical substance (yeast gene YOR248W, cultured two hours with substance): 0.1; The level of expressed mRNA in the presence of chemical substance/The level of expressed mRNA in the absence of chemical substance (yeast gene YOR382W, cultured two hours with substance): 1.1; The level of expressed mRNA in the presence of chemical substance/The level of expressed mRNA in the absence of chemical substance (yeast gene YOR391C, cultured two hours with substance): 18.8; The level of expressed mRNA in the presence of chemical substance/The level of expressed mRNA in the absence of chemical substance (yeast gene YPL052W, cultured two hours with substance): 2.0; The level of expressed mRNA in the presence of chemical substance/The level of expressed mRNA in the absence of chemical substance (yeast gene YPL087W, cultured two hours with substance): 1.0; The level of expressed mRNA in the presence of chemical substance/The level of expressed mRNA in the absence of chemical substance (yeast gene YPL194W, DNA repair protein genes, cultured two hours with substance): 9.6; The level of expressed mRNA in the presence of chemical substance/The level of expressed mRNA in the absence of chemical substance (yeast gene YPL196W, cultured two hours with substance): 10.9; The level of expressed mRNA in the presence of chemical substance/The level of expressed mRNA in the absence of chemical substance (yeast gene YPL206C, cultured two hours with substance): 1.7; The level of expressed mRNA in the presence of chemical substance/The level of expressed mRNA in the absence of chemical substance (yeast gene YPL222W, cultured two hours with substance): 7.4; The level of expressed mRNA in the presence of chemical substance/The level of expressed mRNA in the absence of chemical substance (yeast gene YPL223C (stress protein genes)): 29.4; The level of expressed mRNA in the presence of chemical substance/The level of expressed mRNA in the absence of chemical substance (yeast gene YPL272C, cultured two hours with the chemical substance): 1.2; The level of expressed mRNA in the presence of chemical substance/The level of expressed mRNA in the absence of chemical substance (yeast gene YPL280W, cultured two hours with substance): 49.8; The level of expressed mRNA in the presence of chemical substance/The level of expressed mRNA in the absence of chemical substance (yeast gene YPR023C, cultured two hours with substance): 4.4; The level of expressed mRNA in the presence of chemical substance/The level of expressed mRNA in the absence of chemical substance (yeast gene YPR079W, cultured two hours with substance): 1.7; The level of expressed mRNA in the presence of chemical substance/The level of expressed mRNA in the absence of chemical substance (yeast gene YPR150W, cultured two hours with the chemical substance): 1.2; The level of expressed mRNA in the presence of chemical substance/The level of expressed mRNA in the absence of chemical substance (yeast gene YPR151C, cultured two hours with substance): 3.0; The level of expressed mRNA in the presence of chemical substance/The level of expressed mRNA in the absence of chemical substance (yeast gene YPR167C): 76.6
